Test results reported in patent US5036008A, “Antitumor antibiotic BU-3285T” (Bristol-Myers Company, priority 1990, dated 1991).
In brackets after ≈: the same amount, converted by molar mass.

Tests used:
C. albicans A9540 = assay: In vitro antifungal activity, serial agar dilution; settings: Candida albicans, A9540, 40 h, pH 7
Method: (§4) In vitro antifungal activity was determined against various fungi by the serial agar dilution method. Sabouraud dextrose agar (pH 7.0) was used for the experiment. The inoculum size was adjusted to 10^6 CFU/ml. After incubation at 28° C. for 40 hours, the minimum inhibitory concentration (MIC) was examined.

A. fumigatus IAM2034 = assay: microbe, parasite or virus in culture; settings: Aspergillus fumigatus, IAM2034, 40 h, pH 7
Method: as §4

A. flavus FA21436 = assay: In vitro antifungal activity, serial agar dilution; settings: Aspergillus flavus, FA21436, 40 h, pH 7
Method: as §4

C. neoformans IAM4514 = assay: In vitro antifungal activity, serial agar dilution; settings: Cryptococcus neoformans, IAM4514, 40 h, pH 7
Method: as §4

[1] = test system: Aspergillus fumigatus IAM2530; assay: In vitro antifungal activity, serial agar dilution; settings: IAM2530, 40 h, pH 7
Method: as §4

[2] = test system: Trichophyton mentagrophytes D155; assay: In vitro antifungal activity, serial agar dilution; settings: D155, 40 h, pH 7
Method: as §4

[3] = test system: Fusarium moniliforme A2284; assay: In vitro antifungal activity, serial agar dilution; settings: Fusarium verticillioides, A2284, 40 h, pH 7
Method: as §4

[4] = test system: Sporothrix schenckii IF08158; assay: microbe, parasite or virus in culture; settings: IF08158, 40 h, pH 7
Method: as §4

[5] = test system: Petriellidium boydii IF08078; assay: In vitro antifungal activity, serial agar dilution; settings: Scedosporium boydii, IF08078, 40 h, pH 7
Method: as §4

Candida albicans IAM4888 = assay: In vitro antifungal activity, serial agar dilution; settings: IAM4888, 40 h, pH 7
Method: as §4

[6] = test system: Blastomyces dermatidis D40; assay: In vitro antifungal activity, serial agar dilution; settings: D40, 40 h, pH 7
Method: as §4

[7] = test system: Cryptococcus neoformans D49; assay: In vitro antifungal activity, serial agar dilution; settings: D49, 40 h, pH 7
Method: as §4

Piricularia oryzae D91 = assay: microbe, parasite or virus in culture; type: cell-based; settings: 40 h, pH 7
T. mentagrophytes #4329 = assay: In vitro antifungal activity, serial agar dilution; settings: Trichophyton mentagrophytes, 40 h, pH 7
Method: as §4

Mucor spinosus IF05317 = assay: In vitro antifungal activity, serial agar dilution; settings: IF05317, 40 h, pH 7
Method: as §4

[8] = test system: protein biosynthesis in L1210 leukemia cells; assay: Inhibition of macromolecule biosynthesis, protein (Table 7); type: cell-based, murine; settings: Mus musculus, L1210; labelled precursor; 15 min + 60 min, 37° C.; read-out: IC50, protein synthesis
Method: (§1) Inhibitory effects of BU-3285T on macromolecule biosynthesis (DNA, RNA and protein) were determined in cultured L1210 murine leukemia cells. The cells (5×10^5 cells/ml) were incubated with the compound at 37° C. for 15 minutes and then further incubated for 60 minutes after the addition of labelled precursor, ^3 H-thymidine, ^14 C-uridine or ^3 H-leucine into the cultured mixture. After washing with chilled 5% trichloroacetic acid solution, the radioactivity incorporated into the acid-insoluble fraction of the cells was determined by a liquid scintillation counter.

[9] = test system: DNA biosynthesis in L1210 leukemia cells; assay: Inhibition of macromolecule biosynthesis, DNA (Table 7); type: cell-based, murine; settings: Mus musculus, L1210; 3H-thymidine, ^14 C-uridine or 3H-leucine precursor; 15 min + 60 min, 37° C.; read-out: IC50, DNA synthesis
Method: as §1

P388 leukemia = assay: In vivo antitumor activity against P388 leukemia (Table 8); settings: Q1D × 3
L1210 leukemia = assay: In vivo antitumor activity against L1210 leukemia (Table 9); settings: Q1D × 3
[10] = test system: B16-F10 (murine melanoma) cells; assay: In vitro cytotoxicity (Table 6); type: cell-based; settings: Mus musculus; B16-F10, 72 hrs, neutral red
Method: (§2) BU-3285T was tested for in vitro cytotoxicity against several murine and human tumor cell lines and for in vivo antitumor activity in mice. Mitomycin C was used as a reference compound in both in vitro and in vivo experiments. B16-F10 (murine melanoma) and Moser (human colorectal carcinoma) cells were grown to the logarithmic phase in an enriched Eagle minimum essential medium supplemented with fetal calf serum (FCS, 10%) and kanamycin (60 μg/ml); HCT-116 (human colon carcinoma) cells were in McCoy's 5A medium supplemented with FCS (10%), penicillin (100 U/ml) and streptomycin (100 μg/ml); and P388 (murine lymphocytic leukemia) cells and its vincristine-resistant subline (P388/VCR) were in RPMI 1640 medium supplemented with FCS (10%), penicillin (100 U/ml) and streptomycin (100 μg/ml).
(§3) B16-F10, Moser, HCT-116 and P388 cells were harvested and implanted into wells of a 96-well (for B16-F10, Moser and HCT-116 cells) or a 24-well (for P388 cells) tissue culture plate with test materials at the inoculum sizes of 3×10^4, 6 ×10^4, 6×10^4 and 2×10^4 cells/ml, respectively. They were incubated at 37° C. in a humidified atmosphere of 5% CO2 and 95% air for 72 hrs. […] For P388 cells, the number of viable cells was determined by a Coulter counter.

[11] = test system: HCT-116 (human colon carcinoma) cells; assay: In vitro cytotoxicity (Table 6); type: cell-based; settings: HCT-116, 72 hrs, neutral red
Method: as §2, §3

[12] = test system: RNA biosynthesis in L1210 leukemia cells; assay: Inhibition of macromolecule biosynthesis, RNA (Table 7); type: cell-based, murine; settings: Mus musculus, labelled precursor, 15 min + 60 min, 37° C., read-out: IC50, RNA synthesis
Method: as §1

[13] = test system: Moser (human colorectal carcinoma) cells; assay: In vitro cytotoxicity (Table 6); settings: Homo sapiens, 72 h
Method: as §2, §3

[14] = test system: A549 (human lung carcinoma) cells; assay: In vitro cytotoxicity (Table 14); type: cell-based; settings: A549, 72 h
Method: (§5) B16-F10 (murine melanoma), HCT-116 (human colon carcinoma), A549 (human lung carcinoma) and A549/VP29 (an etoposide-resistant subline of A549) were grown in Eagle's MEM (Nissui) supplemented with FCS (fetal calf serum, 10%) and non-essential amino acids (B16-F10), or in McCoy's 5A medium (Gibco) with FCS (10%), essential and non-essential amino acids, vitamins and antibiotics (HCT-116 and both of A549) at 37° C. under a humidified atmosphere in a 5% CO2 incubator. Exponentially growing B16-F10, HCT-116 and A549 cells were harvested, counted and suspended in the culture medium at 1.5×10^4, 3×10^4 and 3×10^4 cells/ml, respectively. After planting 180 μl of cell suspension into wells of a 96-well microtiter plate on day 0, the test materials (20 μl) were added on day 1 and the plates were incubated for 72 hours. The cytotoxic activity was colorimetrically determined at 540 nm after staining viable cells with neutral red solution.

[15] = test system: HCT-116 (human colon carcinoma) cells; assay: In vitro cytotoxicity (Table 14); type: cell-based; settings: HCT-116, 72 h
Method: as §5

[16] = test system: B16-F10 (murine melanoma) cells; assay: In vitro cytotoxicity (Table 14); type: cell-based; settings: Mus musculus, B16-F10, 72 h
Method: as §5

[17] = test system: A549/VP29 (etoposide-resistant subline of A549) cells; assay: In vitro cytotoxicity (Table 14); settings: A549/VP29, 72 hours, neutral red
Method: After planting 180 μl of cell suspension into wells of a 96-well microtiter plate on day 0, the test materials (20 μl) were added on day 1 and the plates were incubated for 72 hours. The cytotoxic activity was colorimetrically determined at 540 nm after staining viable cells with neutral red solution.

fungi = settings: reported; cited from earlier work
B16 melanoma = settings: reported; cited from earlier work
[18] = 0.1 mg/kg/day ip, significant if T/C ≥ 125%
[19] = 0.3 mg/kg/day ip, *2 significant, T/C ≥ 125%
[20] = 1 mg/kg/day ip, *2 significant, T/C ≥ 125%
[21] = 3 mg/kg/day ip, *2 significant, T/C ≥ 125%

`CC(=O)N1CCN(c2ccc(OCC3COC(Cn4ccnc4)(c4ccc(Cl)cc4Cl)O3)cc2)CC1` (stereo not shown) [Ketoconazole] gave an MIC (C. albicans A9540) of 50 µg/mL (≈ 94.1 µM), an MIC (A. fumigatus IAM2034) of 6.3 µg/mL (≈ 11.9 µM) and an MIC (A. flavus FA21436) of 0.4 µg/mL (≈ 0.753 µM). For the same compound, the MIC (C. neoformans IAM4514) was 0.4 µg/mL (≈ 0.753 µM), the MIC [1] was 3.1 µg/mL (≈ 5.83 µM) and the MIC [2] was 1.6 µg/mL (≈ 3.01 µM). It also gave an MIC [3] of 6.3 µg/mL (≈ 11.9 µM), an MIC [4] of 6.3 µg/mL (≈ 11.9 µM) and an MIC [5] of 1.6 µg/mL (≈ 3.01 µM). The MIC (Candida albicans IAM4888) was 50 µg/mL (≈ 94.1 µM), the MIC [6] was 0.4 µg/mL (≈ 0.753 µM) and the MIC [7] was 0.4 µg/mL (≈ 0.753 µM). The MIC (Piricularia oryzae D91) was 3.1 µg/mL (≈ 5.83 µM), the MIC (T. mentagrophytes #4329) was 1.6 µg/mL (≈ 3.01 µM) and the MIC (Mucor spinosus IF05317) was 100 µg/mL (≈ 188 µM).

With `CO[C@@]12[C@H](COC(N)=O)C3=C(C(=O)C(C)=C(N)C3=O)N1C[C@@H]1N[C@@H]12` [Mitomycin C, reference compound] the IC50 [8] was > 100 µg/mL, the IC50 [9] was 1.7 µg/mL and the “MST (median survival time)” value (P388 leukemia; 0.1 mg/kg/day ip) was 11.5 days. For the same compound, the T/C (P388 leukemia; [18]) was 115%, the “MST (median survival time)” value (P388 leukemia; 0.3 mg/kg/day ip) was 14.0 days and the T/C (P388 leukemia; [19]) was 140%. For the same compound, the “MST (median survival time)” value (P388 leukemia; 1 mg/kg/day ip) was 13.5 days, the T/C (P388 leukemia; [20]) was 135% and the “MST (median survival time)” value (P388 leukemia; 3 mg/kg/day ip) was 20.0 days. For the same compound, the T/C (P388 leukemia; [21]) was 200%, the “MST (median survival time)” value (L1210 leukemia; 0.1 mg/kg/day ip) was 8.5 days and the T/C (L1210 leukemia; [18]) was 121%. The “MST (median survival time)” value (L1210 leukemia; 0.3 mg/kg/day ip) was 10.0 days, the T/C (L1210 leukemia; [19]) was 143% and the “MST (median survival time)” value (L1210 leukemia; 1 mg/kg/day ip) was 9.5 days. The T/C (L1210 leukemia; [20]) was 136%, the “MST (median survival time)” value (L1210 leukemia; 3 mg/kg/day ip) was 13.0 days and the T/C (L1210 leukemia; [21]) was 186%. The IC50 [10] was 0.5 µg/mL (≈ 1.5 µM), the IC50 [11] was 0.8 µg/mL (≈ 2.39 µM) and the IC50 [12] was > 100 µg/mL. The IC50 [13] was 1.2 µg/mL (≈ 3.59 µM).

Work on `COc1cc([C@@H]2c3cc4c(cc3[C@@H](O[C@@H]3O[C@@H]5CO[C@@H](C)O[C@H]5[C@H](O)[C@H]3O)[C@H]3COC(=O)[C@H]23)OCO4)cc(OC)c1O` [VP16, reference compound] yielded an IC50 [14] of 1.2 µg/mL (≈ 2.04 µM), an IC50 [15] of 5.3 µg/mL (≈ 9 µM) and an IC50 [16] of 0.21 µg/mL (≈ 0.357 µM). For the same compound, the IC50 [17] was 40 µg/mL (≈ 68 µM).

In the case of `C[C@@](O)(/C=C/[C@H]1CC=CC(=O)O1)[C@@H](C[C@@H](O)\C=C/C=C\C=C\CO)OP(=O)(O)O` [fostriecin], the antifungal activity (fungi) is given as “no antifungal activity” and the “antitumor effect against B16 melanoma” value (B16 melanoma) is given as “no antitumor effect against B16 melanoma”.
